Test results as given in US20040014814A1, “Compositions and methods for delaying preventing rejuvenating or reversing senescence in cells” (priority 2000, published 2004).

What was measured:
MRC-5 cells [1] = assay: Effect of carnosine derivatives on cell growth / toxicity in MRC-5 cell cultures; format: cell-based, human; set-up: key to Effect on cell growth (score): (0) Toxic to cell growth; (10) Confluent cell growth; settings: for Effect on cell growth (score): MRC-5 cells, scale 0 toxic to 10 confluent; for Cell Growth: summary grade
Method: (§1) MRC -5 cells (fetal lung fibroblasts) were grown in Dulbecco's modification of Eagles' minimum essential medium (DMEM Gibco BRL Cat. No. 12800-017) containing 0.45% glucose, or MEM (Gibco BRL Cat. No. 612800-017) containing 0.1% glucose. Both media contained 10% fetal calf scrum (TRACE Biosciences Cat. No. 15-010-0500V) and Penicillin/Streptomycin 5000 IU, 5000 μg/ml (TRACE Biosciences Cat. No. 21-140-0100V). Cells were grown in […] flasks or in dishes (35 mm or 60 mm, Nunc) at 37° C. with 5% CO2. Cells were harvested with trypsin (TRACE Biosciences Cat. No. 21-163-0100V) and counted with a model ZF6 Coulter Counter. Cells were split in ratios of 1:2 or 1:4. Population doublings (PDs) were calculated from the ratio of the initial number of cells plated to the yield of cells after a period of time. This provides an accurate measure of cell growth, with the split ratios 1:2 and 1:4 corresponding to one and two passages respectively, which are broadly equivalent to population doublings. The media was changed every 5 days or when cells became confluent.
MRC-5 cells were used to observe the toxicity of a series of derivatives of carnosine on cell growth. Cell cultures were grown in DMEM media with 10% fetal calf serum and supplemented with the following carnosine analogues: carnosine ethyl ester, carnosine iso-propyl ester, carnosine n-butyl ester, carnosine n-hexyl ester, N-propyl carnosine, N-hexanoyl carnosine, N-trimethyl acetyl carnosine, N-acetyl carnosine methyl ester, N-acetyl carnosine ethyl ester and N-acetyl carnosine, […] Cells were also grown in DMEM supplemented with carnosine at 20 mM. […] Even at lower concentrations cell morphology was that of cells that have reached senescence i.e. broad flat cells with long process reaching out to other cells. Cell numbers were less than in the control flasks. […] As shown in FIG. 1 Acetyl-carnosine achieved a lifespan 5 PDs greater than the control and 6.7 PDs greater than carnosine over a 43 day period. […] In the early phase of the experiment growth rates were markedly greater than with the other compounds (FIG. 1).

MRC-5 cells [2] = assay: Lifespan (population doublings) of MRC-5 cells in culture; format: cell-based, human; set-up: key to Lifespan extension: 0 = zero effect; 10 = maximum effect; settings: for Lifespan of MRC-5 cells in culture, Population Doublings (PD): commenced at passage 55; for Lifespan extension: summary grade
Method: Cultures were split in a 1:4 ratio when flasks were approximately 70-80% confluent.
as §1
MRC-5 cells were used to observe the toxicity of a series of derivatives of carnosine on cell growth. Cell cultures were grown in DMEM media with 10% fetal calf serum and supplemented with the following carnosine analogues: carnosine ethyl ester, carnosine iso-propyl ester, carnosine n-butyl ester, carnosine n-hexyl ester, N-propyl carnosine, N-hexanoyl carnosine, N-trimethyl acetyl carnosine, N-acetyl carnosine methyl ester, N-acetyl carnosine ethyl ester and N-acetyl carnosine, at concentrations ranging between 1 mM to 20 mM. Cells were also grown in DMEM supplemented with carnosine at 20 mM. […] Even at lower concentrations cell morphology was that of cells that have reached senescence i.e. broad flat cells with long process reaching out to other cells. Cell numbers were less than in the control flasks. […] As shown in FIG. 1 Acetyl-carnosine achieved a lifespan 5 PDs greater than the control and 6.7 PDs greater than carnosine over a 43 day period. […] In the early phase of the experiment growth rates were markedly greater than with the other compounds (FIG. 1).
In fact all populations of MRC-5 cells grown in DMEM supplemented with acetyl-carnosine preserved a younger phenotype for much longer than cells grown in DMEM supplemented with carnosine or its analogues.
Under control conditions the range was 57.3-64.5 PDs (n=5). With the addition of carnosine (20mM) to the medium the range was 61.8-63.7 PDs (n=5) with an average increase of 1.4 PDs which represents a 3 fold increase in cell number. However, when acetyl-carnosine (5 mM) was added to the medium, the range was 62.3-70.3 PDs (n=5) with an average increase of 5 PDs compared with the controls. This represents a 32 fold increase in cell number.

corneal epithelial cells = assay: Uptake of radio-labeled (3H) compounds in fresh bovine eyes (corneal epithelium into aqueous humour); format: in vitro ADME; settings: after 4 hours
Method: Radio-labeled (3H) carnosine and acetyl-carnosine were assayed for their rate of uptake using fresh bovine eyes and MRC-5 fibroblast cultures. For bovine eyes small cylinders (radius 3.5mm and height 8mm) placed on top of the eye formed a fix seal with the corneal epithelial cells. 200 microlitres of the radio-labeled compounds in 5mM unlabeled compound in phosphate buffered saline were instilled onto the eye and at different time points 600 μl of aqueous humour was aspirated using a 25 gauge needle for counting in the scintillation counter.
The uptake experiments were repeated using fresh bovine eyes.

human blood peptidases = assay: Stability in human blood serum / attack by human blood peptidases; format: in vitro ADME; settings: human blood serum
[3] = Fate of compound after cellular uptake; format: cell-based; settings: compared with acetyl-carnosine
Method: Experiments were conducted to determine the fate of acetyl-carnosine and carnosine after cellular uptake. […] A slower metabolism and incorporation into other proteins may be one reason for acetyl-carnosine having higher effective intracellular concentrations compared with carnosine despite its lower overall uptake.

MRC-5 cells [4] = test system: MRC-5 cells; set-up: Cell and eye uptake assay: key to the marks not given beside the values
MRC-5 cells [5] = settings: carnosine supplemented media; cited from earlier work
senescent MRC-5 cells = settings: 20 mM; PCT/AU91/00541; cited from earlier work
[6] = test system: UV-Induced Immuno-suppression; set-up: key: 0 = zero effect; 10 = maximum effect; settings: footnote (3) Australian provisional PQ 5150; cited from earlier work
MRC-5 cells [7] = assay: Uptake of radio-labeled (3H) compounds by MRC-5 fibroblast cells; settings: MRC-5 cells, after 48 hours
Method: For MRC-5 cells, (3H)—carnosine and acetyl carnosine were added to the medium of near confluent 60mm culture dishes. At different time points cells were washed three times with phosphate buffered saline, cells harvested and cell-associated radioactivity determined using Packard Starscint scintillation fluid.
The rate of uptake of carnosine and acetyl-carnosine by MRC-5 cells was studied using radio-labeled tritiated (3H) carnosine and acetyl-carnosine compounds. The uptake was measured in MRC-5 cells at passage 28 over a 48 hour period (FIG. 3A).

Molecule | Effect on cell growth (score) (MRC-5 cells [1]; 0.5 mM) | Effect on cell growth (score) (MRC-5 cells [1]; 1 mM) | Effect on cell growth (score) (MRC-5 cells [1]; 2 mM) | Effect on cell growth (score) (MRC-5 cells [1]; 5 mM) | Effect on cell growth (score) (MRC-5 cells [1]; 10 mM) | Effect on cell growth (score) (MRC-5 cells [1]; 20 mM) | Lifespan of MRC-5 cells in culture, Population Doublings (PD) (MRC-5 cells [2]; 5 mM) | Lifespan extension (MRC-5 cells [2]) | Cell Growth (MRC-5 cells [1]) | other results
N-propyl carnosine | 6 | 6 | 5 | 4 | 3 | 2 | 11.0 | 0 |  | 
CC(C)(C)C(=O)NCCC(=O)NC(Cc1cnc[nH]1)C(=O)O (centres unmarked) [N-trimethyl acetyl carnosine] | 6 | 6 | 5 | 4 | 3 | 3 | 9.4 | 0 |  | 
CCCCCC(=O)NCCC(=O)N[C@@H](Cc1c[nH]cn1)C(=O)O [N-hexanoyl carnosine] | 6 | 6 | 5 | 4 | 3 | 3 | 10.8 | 0 |  | 
CCCCOC(=O)[C@@H](Cc1cnc[nH]1)NC(=O)CCN [Carnosine n-butyl ester, carnosine n-butyl ester] |  |  | 5 | 5 | 2 | 0 |  |  | TOXIC | 
COC(=O)C(Cc1cnc[nH]1)NC(=O)CCNC(C)=O (centres unmarked) [N-acetyl carnosine methyl ester] | 6 | 6 | 5 | 5 | 5 | 0 |  |  |  | 
NCCC(=O)N[C@@H](Cc1cnc[nH]1)C(=O)O [Carnosine, β-alanyl-L-histidine, reference compound] |  |  |  | 5 | 6 | 7 |  |  |  | Range of lifespans of populations of MRC-5 cells (MRC-5 cells [2]; 20 mM in medium, n=5): 61.8-63.7 PDs; Lifespan of MRC-5 cells in culture, Population Doublings (PD) (MRC-5 cells [2]; 20 mM): 8.5 PD; Average increase in lifespan compared with controls (MRC-5 cells [2]; 20 mM, n=5): 1.4 PDs; Increase in cell number (MRC-5 cells [2]; 20 mM, worked out from the PD increase): 3 fold; Increase in cell mass (MRC-5 cells [2]; cells exposed to supplemented media): 3 fold; Uptake of (3H) compound into aqueous humour (corneal epithelial cells): 1.3%; Uptake relative to acetyl-carnosine (corneal epithelial cells): 2 times; Stability in human blood serum (human blood peptidases): rapidly destroyed; Incorporation of label into higher molecular weight proteins after uptake [3]: more rapidly incorporated into higher molecular weight proteins; Cell and eye uptake assay (MRC-5 cells [4]): ++++; Uptake of (3H) compound by MRC-5 cells (MRC-5 cells [4]; human, 48 h): 0.32%; Uptake relative to acetyl-carnosine (MRC-5 cells [4]; human, 48 h): 2 times; Increase in cell mass reported by McFarland & Holliday (MRC-5 cells [5]): 12 fold; Effect on senescent MRC-5 cells transferred to supplemented medium (senescent MRC-5 cells): rejuvenated; UV immuno suppression: post irradiation assay (3) [6]: 0; Number of cells growing in supplemented media (MRC-5 cells [7]): 2.4×10^6
CCOC(=O)[C@H](Cc1cnc[nH]1)NC(=O)CCN [Carnosine ethyl ester, carnosine ethyl ester] |  |  | 5 | 5 | 4 | 3 |  |  |  | 
CC(C)OC(=O)[C@H](Cc1cnc[nH]1)NC(=O)CCN [Carnosine iso-propyl ester, carnosine iso-propyl ester] |  |  | 2 | 0 | 0 | 0 |  |  | TOXIC | 
CCOC(=O)C(Cc1cnc[nH]1)NC(=O)CCNC(C)=O (centres unmarked) [N-acetyl carnosine ethyl ester] | 6 | 5 | 4 | 4 | 2 | 0 |  |  |  | 
CCCCCCOC(=O)[C@H](Cc1c[nH]cn1)NC(=O)CCN [carnosine n-hexyl ester] |  |  | 3 | 1 | 0 | 0 |  |  | TOXIC | 
